{
  "source": "patent US20250049741A1",
  "about": "“COMPOSITION FOR PREVENTING OR TREATING ALZHEIMER'S DISEASE COMPRISING PHOSPHOLIPASE C ACTIVATOR AS AN ACTIVE INGREDIENT” (Korea University Research and Business Foundation, priority 2021, published 2025)",
  "test_system": "PLCβ1",
  "experiment": "Western blot of PLCβ1 in rat hippocampal slices",
  "type": "cell-based, Sprague-Dawley rats",
  "details": "AβO+m-3M3FBS-treated rat hippocampal slices; similar to DMSO-treated slices",
  "procedure": "Soluble AβO was prepared according to a previous study (BMC Biol. 2020; 18(1):7). Specifically, Aβ1-42 (Aβ) and a scrambled form of Aβ as a control peptide were purchased in powder form. Aβ and scrambled Aβ were dissolved for monomerization in 1,1,1,3,3,3-hexafluoro-2-propanol (HFIP, Sigma Aldrich, USA) at a final concentration of 1 mM, and the solution was incubated for 90 minutes. After the HFIP was evaporated, the remaining thin and clear film of Aβ or scrambled Aβ was dissolved in dimethyl sulfoxide (DMSO, Sigma Aldrich, USA) to prepare 5 mM Aβ or scrambled Aβ stocks, which were aliquoted and frozen at −20° C. Aβ or scrambled Aβ stocks were thawed and diluted to 100 μM in artificial cerebrospinal fluid (ACSF). Thereafter, Aβ or scrambled Aβ stocks were incubated for oligomerization for 18 hours. […]\nHippocampal PLCβ1 of SD rats and C57BL/6 or 5XFAD mice were prepared from homogenized hippocampi dissolved in 200 μL of RIPA buffer (Bio-Rad, USA), and were resolved on non-reducing 10% tris-glycine-sodium dodecyl sulfate-polyacrylamide gel electrophoresis (SDS-PAGE) gels (Bio-Rad, USA) using 4×Laemmli sample buffers (Bio-Rad, USA). […] Immunoreactivity was confirmed with enhanced chemiluminescence (Bio-Rad, USA) using a Fluorchem E system (ProteinSimple, USA) and analyzed with ImageJ software. […]",
  "data": [
    {"smiles": "Cc1cc(C)c(S(=O)(=O)Nc2cccc(C(F)(F)F)c2)c(C)c1", "note": "[m-3M3FBS]", "values": [
      {"measurement": "PLCβ1 protein levels in AβO-treated slices", "value": "completely restored"}
    ]}
  ]
}
